Literature values as cited in US20230321462A1, “Method for Improving Olfactory Sensitivity” (Kao Corporation, priority 2019, published 2023).

Tests used:
Conditions in all cases: Table 3; cited from earlier work
OR51D1 = target: T1, OR51D1 (Homo sapiens, UniProt Q8NGF3)
T1 sequence (Q8NGF3 1-324): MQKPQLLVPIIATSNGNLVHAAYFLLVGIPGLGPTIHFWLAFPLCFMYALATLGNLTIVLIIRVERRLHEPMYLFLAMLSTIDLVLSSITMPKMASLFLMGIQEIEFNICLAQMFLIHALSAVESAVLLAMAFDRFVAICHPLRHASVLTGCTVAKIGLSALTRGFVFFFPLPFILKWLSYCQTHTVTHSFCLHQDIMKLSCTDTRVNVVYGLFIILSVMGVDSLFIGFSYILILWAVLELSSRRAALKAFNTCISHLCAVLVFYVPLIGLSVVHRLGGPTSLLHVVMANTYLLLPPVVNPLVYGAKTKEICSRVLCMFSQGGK

OR2T1 = target: T2, OR2T1 (Homo sapiens, UniProt O43869)
T2 sequence (O43869 1-369): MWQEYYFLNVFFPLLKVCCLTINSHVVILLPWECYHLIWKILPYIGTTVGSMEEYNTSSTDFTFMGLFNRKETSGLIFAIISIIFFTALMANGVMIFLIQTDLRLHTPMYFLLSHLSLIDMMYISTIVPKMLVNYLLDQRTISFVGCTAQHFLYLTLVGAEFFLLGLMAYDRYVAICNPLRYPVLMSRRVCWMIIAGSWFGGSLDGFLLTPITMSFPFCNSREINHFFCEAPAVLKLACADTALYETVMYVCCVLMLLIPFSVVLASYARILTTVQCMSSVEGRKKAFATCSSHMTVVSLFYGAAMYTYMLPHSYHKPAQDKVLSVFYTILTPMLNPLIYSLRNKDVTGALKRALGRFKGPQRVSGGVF

OR5Al1 = target: T3, OR5Al1 (Homo sapiens, UniProt P0C617)
T3 sequence (P0C617 1-329): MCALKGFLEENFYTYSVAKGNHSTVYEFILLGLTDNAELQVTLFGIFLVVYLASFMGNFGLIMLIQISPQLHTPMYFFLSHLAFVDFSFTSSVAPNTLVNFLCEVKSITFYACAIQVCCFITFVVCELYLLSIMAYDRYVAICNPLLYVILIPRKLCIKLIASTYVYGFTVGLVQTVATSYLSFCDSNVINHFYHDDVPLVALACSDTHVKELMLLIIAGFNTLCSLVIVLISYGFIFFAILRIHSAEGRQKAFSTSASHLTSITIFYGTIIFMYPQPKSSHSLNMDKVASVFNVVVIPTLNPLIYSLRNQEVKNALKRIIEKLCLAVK

OR7G2 = target: T4, OR7G2 (Homo sapiens, UniProt Q8NG99)
T4 sequence (Q8NG99 1-324): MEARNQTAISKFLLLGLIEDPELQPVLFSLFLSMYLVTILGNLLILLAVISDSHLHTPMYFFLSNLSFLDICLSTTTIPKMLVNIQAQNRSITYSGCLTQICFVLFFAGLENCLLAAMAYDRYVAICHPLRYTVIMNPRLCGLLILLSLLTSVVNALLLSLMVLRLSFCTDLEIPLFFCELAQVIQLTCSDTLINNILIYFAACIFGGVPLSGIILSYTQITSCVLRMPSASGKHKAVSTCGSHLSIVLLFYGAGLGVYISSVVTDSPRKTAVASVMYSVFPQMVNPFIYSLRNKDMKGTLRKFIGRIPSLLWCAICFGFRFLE

CCCC(=O)O [Butyric acid]
recognized by: recognition by OR51D1 (OR51D1) | recognition by OR2T1 (OR2T1) | recognition by OR5Al1 (OR5Al1) | recognition by OR7G2 (OR7G2)
